From ChEMBL document CHEMBL1201862, “PubChem BioAssay data set” (2004) come the findings set out here.

Assay [1] concerns the target Adenosylmethionine-8-amino-7-oxononanoate aminotransferase (Mycobacterium tuberculosis, UniProt P9WQ81). The assay can be described thus: Mycobacterium tuberculosis BioA enzyme inhibitor Measured in Biochemical System Using Plate Reader - 2163-02_Inhibitor_Dose_CherryPick_Activity. The class given is functional, Mycobacterium tuberculosis UT205.
For assay [2], the target named is T1, Apoptotic protease-activating factor 1 (Homo sapiens, UniProt O14727).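 Further: caspase-3 cleavage of fluorogenic Rh110 DEVD substrate downstream of apoptosome activation.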
T1 sequence (O14727 whole entry): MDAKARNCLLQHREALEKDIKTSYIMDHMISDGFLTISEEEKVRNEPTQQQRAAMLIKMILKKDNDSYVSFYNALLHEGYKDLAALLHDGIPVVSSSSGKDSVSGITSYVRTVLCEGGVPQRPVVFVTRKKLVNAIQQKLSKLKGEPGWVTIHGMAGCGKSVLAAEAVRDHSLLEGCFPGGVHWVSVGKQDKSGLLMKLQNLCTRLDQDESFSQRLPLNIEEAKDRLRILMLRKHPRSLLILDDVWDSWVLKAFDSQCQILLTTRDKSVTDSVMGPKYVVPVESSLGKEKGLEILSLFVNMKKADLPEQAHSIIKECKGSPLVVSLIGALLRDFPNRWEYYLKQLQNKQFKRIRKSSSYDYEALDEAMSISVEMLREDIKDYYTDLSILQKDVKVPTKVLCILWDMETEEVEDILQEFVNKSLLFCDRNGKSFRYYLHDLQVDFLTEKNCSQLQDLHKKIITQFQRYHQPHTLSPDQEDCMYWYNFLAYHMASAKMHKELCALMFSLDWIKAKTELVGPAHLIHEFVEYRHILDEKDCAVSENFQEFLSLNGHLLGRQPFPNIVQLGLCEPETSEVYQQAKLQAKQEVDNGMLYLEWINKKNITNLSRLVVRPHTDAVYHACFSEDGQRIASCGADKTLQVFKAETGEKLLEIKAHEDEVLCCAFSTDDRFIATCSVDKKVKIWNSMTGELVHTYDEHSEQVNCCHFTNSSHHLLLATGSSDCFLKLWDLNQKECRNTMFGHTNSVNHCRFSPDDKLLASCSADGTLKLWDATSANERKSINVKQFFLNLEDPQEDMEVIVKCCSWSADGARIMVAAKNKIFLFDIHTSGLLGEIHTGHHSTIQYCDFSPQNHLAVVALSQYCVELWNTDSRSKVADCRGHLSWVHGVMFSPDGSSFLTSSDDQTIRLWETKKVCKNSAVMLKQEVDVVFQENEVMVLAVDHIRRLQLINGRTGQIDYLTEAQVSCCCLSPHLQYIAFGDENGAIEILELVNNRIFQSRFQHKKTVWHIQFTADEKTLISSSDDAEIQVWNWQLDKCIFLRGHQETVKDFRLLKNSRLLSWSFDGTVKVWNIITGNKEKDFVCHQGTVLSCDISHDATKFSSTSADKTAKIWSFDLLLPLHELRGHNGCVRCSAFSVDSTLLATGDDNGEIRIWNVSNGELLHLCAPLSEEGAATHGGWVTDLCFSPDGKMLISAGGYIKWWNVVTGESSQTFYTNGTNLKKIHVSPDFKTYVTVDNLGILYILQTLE
The assay can be described thus: SAR analysis of small molecule Activators of Apaf-1 in a Fluorescent assay. Type of assay: functional. Conditions: read-out: EC50_Mean.

The target in assay [3] is T2, Sentrin-specific protease 1 (Homo sapiens, UniProt Q9P0U3).
T2 sequence (Q9P0U3 whole entry): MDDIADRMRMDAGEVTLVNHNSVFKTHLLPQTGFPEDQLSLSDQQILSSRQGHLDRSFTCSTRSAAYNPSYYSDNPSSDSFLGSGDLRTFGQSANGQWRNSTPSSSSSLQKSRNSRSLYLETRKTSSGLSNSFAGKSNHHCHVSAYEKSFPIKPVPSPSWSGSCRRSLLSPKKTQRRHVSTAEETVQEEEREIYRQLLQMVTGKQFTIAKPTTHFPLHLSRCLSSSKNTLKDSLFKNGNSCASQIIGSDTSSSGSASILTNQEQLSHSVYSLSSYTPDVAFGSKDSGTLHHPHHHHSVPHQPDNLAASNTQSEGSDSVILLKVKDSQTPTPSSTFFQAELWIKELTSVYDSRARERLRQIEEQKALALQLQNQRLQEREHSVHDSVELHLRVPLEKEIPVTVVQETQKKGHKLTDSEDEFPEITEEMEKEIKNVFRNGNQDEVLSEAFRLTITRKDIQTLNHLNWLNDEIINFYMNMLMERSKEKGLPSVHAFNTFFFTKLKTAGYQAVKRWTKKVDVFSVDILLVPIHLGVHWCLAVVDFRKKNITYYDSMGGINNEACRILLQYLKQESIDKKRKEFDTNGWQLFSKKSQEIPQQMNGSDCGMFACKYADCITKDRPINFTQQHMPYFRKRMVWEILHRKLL
The assay can be described thus: potency of human SENP1 inhibitors, dose response, biochemical, kinetic FRET (AID 651697). Conditions: read-out: IC50_Mean. The class given is functional.

Assay [4] addresses T2, Sentrin-specific protease 1. The assay can be described thus: Dose response confirmation of small molecule inhibitors of the catalytic domain of the SUMO protease, SENP1 in a FRET assay. Conditions: read-out: IC50_Mean. The class given is functional.
The target in assay [5] is 72 kDa type IV collagenase (Homo sapiens, UniProt P08253). The assay can be described thus: Dose Response validation of uHTS RPN11 inhibitor hits using a MMP-2 Fluorescence assay. The class given is functional.
In assay [6] the target is T3, Rac GTPase-activating protein 1 (Homo sapiens, UniProt Q9H0H5).
T3 sequence (Q9H0H5 whole entry): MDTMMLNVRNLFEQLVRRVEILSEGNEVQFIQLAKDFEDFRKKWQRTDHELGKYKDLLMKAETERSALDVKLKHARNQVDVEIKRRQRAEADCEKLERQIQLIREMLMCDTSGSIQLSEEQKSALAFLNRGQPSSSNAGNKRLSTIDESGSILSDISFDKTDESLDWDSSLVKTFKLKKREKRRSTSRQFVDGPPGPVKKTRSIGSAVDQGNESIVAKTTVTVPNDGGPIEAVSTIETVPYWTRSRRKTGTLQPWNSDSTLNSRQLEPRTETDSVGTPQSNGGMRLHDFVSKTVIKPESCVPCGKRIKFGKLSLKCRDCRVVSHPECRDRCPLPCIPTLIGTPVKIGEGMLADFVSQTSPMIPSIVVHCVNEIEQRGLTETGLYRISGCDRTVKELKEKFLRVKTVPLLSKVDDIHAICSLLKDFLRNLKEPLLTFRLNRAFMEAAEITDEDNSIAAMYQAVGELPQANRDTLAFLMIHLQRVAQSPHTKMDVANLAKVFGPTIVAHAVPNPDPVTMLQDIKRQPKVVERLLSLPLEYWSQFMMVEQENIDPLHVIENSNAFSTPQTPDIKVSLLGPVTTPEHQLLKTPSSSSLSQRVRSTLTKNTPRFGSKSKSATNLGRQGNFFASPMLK
The assay can be described thus: MgcRacGAP GTPase-activating activity inhibitors, confirmation, biochemical, ADP Hunter fluorescence, primary and confirmatory (AID 624330). Type of assay: functional.

Assay [7] addresses 26S proteasome non-ATPase regulatory subunit 14 (Homo sapiens, UniProt O00487). The assay can be described thus: inhibition of proteasome subunit RPN11 – biochemical, fluorescence polarization, uHTS hits, confirmation (AID 602368). Type of assay: functional. In general terms: In fluorescence polarisation assays a small probe gives low polarisation when free and higher when bound to something large.

A further assay concerns the target Prothrombin (Bos taurus, UniProt P00735). The assay can be described thus: thrombin inhibition, dose response, biochemical, fluorescence polarization, uHTS hits (AID 602369). The class given is functional.
Assay [8] in a line: C. albicans growth with fluconazole, confirmation, fluorescence, retest (AID 2467). Type of assay: functional, cell-based.
The target of assay [9] is T4, Latent membrane protein 1 (Human herpesvirus 4 (strain B95-8), UniProt P03230).
T4 sequence (P03230 whole entry): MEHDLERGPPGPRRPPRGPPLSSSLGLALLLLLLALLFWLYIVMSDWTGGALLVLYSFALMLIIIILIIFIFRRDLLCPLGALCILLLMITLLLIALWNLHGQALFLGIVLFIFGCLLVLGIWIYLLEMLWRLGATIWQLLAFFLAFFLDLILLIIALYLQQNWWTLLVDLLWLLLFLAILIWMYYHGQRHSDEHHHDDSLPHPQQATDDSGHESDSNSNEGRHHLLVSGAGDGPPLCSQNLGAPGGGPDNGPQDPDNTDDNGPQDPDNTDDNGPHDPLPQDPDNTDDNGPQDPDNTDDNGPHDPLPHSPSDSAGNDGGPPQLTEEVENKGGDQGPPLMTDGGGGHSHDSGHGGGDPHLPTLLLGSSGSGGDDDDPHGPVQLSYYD
The assay can be described thus: TES1-eGFP NF-kB reporter inhibition versus Tet-On dsRED, dose response, selectivity assay for LMP1 NF-kB inhibitor project, imaging, HEK293T, dual-color eGFP/dsRED, cherry-picks (AID 588398). Type of assay: functional, cell-based.

Assay [10] can be described thus: NIH-3T3 fibroblast cytotoxicity, dose response, cytotoxicity control, cell-based, fluorescence, Alamar Blue, secondary assay (AID 2327).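 Further: NIH-3T3 mouse fibroblasts cultured with fluconazole at 8 µg/mL.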 Type of assay: functional.
A short description of assay [11]: HepG2 cell cytotoxicity, dose response, cytotoxicity control for Shn3 inhibitor project, CellTiter-Glo, cherry-picked (AID 624134). The class given is functional, cell-based. On the technique in general: ATP-based viability assays read luminescence as a measure of living cells.
Assay [12] can be described thus: Shn3 3'UTR reporter inhibitors, dose response, cell-based, Clone20 osteoblasts, firefly luciferase, cherry-picked (AID 624132).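 Further: firefly luciferase luminescence from reporter carrying the Shn3 3'UTR in osteoblasts.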 Type of assay: functional.
In the next assay the test system is HEK293. The assay can be described thus: inhibitors of LMP1-driven NF-kB reporter, dose response, cell-based, HEK293, luciferase, cherry-pick (AID 588343). Type of assay: functional. Conditions: Homo sapiens.
Another assay deals with Vero. The assay can be described thus: cells. The settings on record: Chlorocebus sabaeus. Type of assay: functional.
Assay [13] is described as follows: control 3'UTR Renilla luciferase suppression, dose response, counter-screen for Shn3 inhibitor project, cell-based, Clone20-Shn3RL, cherry-picked (AID 624133). The class given is functional.
For assay [14], the target named is Ras and Rab interactor 1/Tyrosine-protein kinase ABL1 (Homo sapiens, UniProt P00519+Q13671). Type of assay: functional.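 Further: biochemical TR-FRET dose-response test measuring inhibition of binding between Rin1 and Abl proteins.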
Assay [15] deals with T5, Probable nicotinate-nucleotide adenylyltransferase (Staphylococcus aureus (strain N315), UniProt P65502). The class given is functional, Staphylococcus aureus subsp. aureus N315. The settings on record: read-out: IC50_Mean.
The target in assay [16] is T5, Probable nicotinate-nucleotide adenylyltransferase. The class given is functional, Staphylococcus aureus subsp. aureus N315.
The test system of another assay is H9c2. The assay can be described thus: cells. The class given is functional, cell-based. The settings on record: Rattus norvegicus, H9c2, Myocardium.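 Further: confirmatory concentration-response retest of ultra-high-throughput screening hits for modulation of myocardial damage; cell death induced by hydrogen peroxide oxidative stress; compound pretreatment for 60 min then peroxide exposure for 2 h; potency is for protecting the cells against peroxide damage rather than for killing them.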

As usually defined, the AC50 is the midpoint of the concentration-response curve, whichever way the signal moves. As usually defined, the CC50 is the concentration giving 50% cytotoxicity.

Active and inactive are the calls of the source.

26S proteasome non-ATPase regulatory subunit 14, sequence (O00487 whole entry): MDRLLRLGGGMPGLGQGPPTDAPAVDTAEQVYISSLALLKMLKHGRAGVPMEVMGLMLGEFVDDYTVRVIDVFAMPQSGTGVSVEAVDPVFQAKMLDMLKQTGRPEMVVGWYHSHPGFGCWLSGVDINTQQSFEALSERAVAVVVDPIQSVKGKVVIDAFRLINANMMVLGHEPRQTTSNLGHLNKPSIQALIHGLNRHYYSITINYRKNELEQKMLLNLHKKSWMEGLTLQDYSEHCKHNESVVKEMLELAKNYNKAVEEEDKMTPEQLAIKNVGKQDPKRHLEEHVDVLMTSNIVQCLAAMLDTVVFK
72 kDa type IV collagenase, sequence (P08253 whole entry): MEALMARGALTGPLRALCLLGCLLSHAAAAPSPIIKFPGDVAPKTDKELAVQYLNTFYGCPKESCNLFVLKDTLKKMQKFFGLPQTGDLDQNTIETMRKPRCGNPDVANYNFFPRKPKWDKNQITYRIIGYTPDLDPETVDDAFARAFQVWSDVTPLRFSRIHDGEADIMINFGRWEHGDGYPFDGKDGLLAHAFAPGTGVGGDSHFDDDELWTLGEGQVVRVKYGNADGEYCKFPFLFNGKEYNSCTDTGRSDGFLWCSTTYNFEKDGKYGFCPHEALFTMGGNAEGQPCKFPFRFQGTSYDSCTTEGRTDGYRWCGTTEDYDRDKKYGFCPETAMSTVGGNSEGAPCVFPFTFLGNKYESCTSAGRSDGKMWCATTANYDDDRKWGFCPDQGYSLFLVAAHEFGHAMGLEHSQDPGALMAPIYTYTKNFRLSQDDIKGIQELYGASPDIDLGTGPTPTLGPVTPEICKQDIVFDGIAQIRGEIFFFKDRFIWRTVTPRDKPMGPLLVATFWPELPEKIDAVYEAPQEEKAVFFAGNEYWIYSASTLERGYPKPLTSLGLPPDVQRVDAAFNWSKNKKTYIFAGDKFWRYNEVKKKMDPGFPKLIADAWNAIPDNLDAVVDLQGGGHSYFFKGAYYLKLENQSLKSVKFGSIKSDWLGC
Adenosylmethionine-8-amino-7-oxononanoate aminotransferase, sequence (P9WQ81 whole entry): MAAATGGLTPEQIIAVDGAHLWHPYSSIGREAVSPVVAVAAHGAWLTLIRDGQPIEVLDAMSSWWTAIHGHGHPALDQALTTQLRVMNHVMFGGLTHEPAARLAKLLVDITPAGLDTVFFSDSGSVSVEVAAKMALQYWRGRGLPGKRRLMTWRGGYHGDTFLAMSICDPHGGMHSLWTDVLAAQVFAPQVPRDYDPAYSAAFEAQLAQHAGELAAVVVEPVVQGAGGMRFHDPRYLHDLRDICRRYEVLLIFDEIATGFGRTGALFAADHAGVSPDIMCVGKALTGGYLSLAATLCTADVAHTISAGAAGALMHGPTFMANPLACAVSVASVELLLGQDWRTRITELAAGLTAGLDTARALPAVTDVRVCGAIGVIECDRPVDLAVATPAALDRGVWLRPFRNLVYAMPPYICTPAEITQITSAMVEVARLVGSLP
T5 sequence (P65502 whole entry): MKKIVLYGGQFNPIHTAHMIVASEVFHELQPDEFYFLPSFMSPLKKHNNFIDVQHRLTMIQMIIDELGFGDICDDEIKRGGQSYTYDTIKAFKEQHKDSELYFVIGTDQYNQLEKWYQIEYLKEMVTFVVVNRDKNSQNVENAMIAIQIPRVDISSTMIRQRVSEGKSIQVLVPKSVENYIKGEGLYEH
Ras and Rab interactor 1/Tyrosine-protein kinase ABL1, sequence (P00519 whole entry): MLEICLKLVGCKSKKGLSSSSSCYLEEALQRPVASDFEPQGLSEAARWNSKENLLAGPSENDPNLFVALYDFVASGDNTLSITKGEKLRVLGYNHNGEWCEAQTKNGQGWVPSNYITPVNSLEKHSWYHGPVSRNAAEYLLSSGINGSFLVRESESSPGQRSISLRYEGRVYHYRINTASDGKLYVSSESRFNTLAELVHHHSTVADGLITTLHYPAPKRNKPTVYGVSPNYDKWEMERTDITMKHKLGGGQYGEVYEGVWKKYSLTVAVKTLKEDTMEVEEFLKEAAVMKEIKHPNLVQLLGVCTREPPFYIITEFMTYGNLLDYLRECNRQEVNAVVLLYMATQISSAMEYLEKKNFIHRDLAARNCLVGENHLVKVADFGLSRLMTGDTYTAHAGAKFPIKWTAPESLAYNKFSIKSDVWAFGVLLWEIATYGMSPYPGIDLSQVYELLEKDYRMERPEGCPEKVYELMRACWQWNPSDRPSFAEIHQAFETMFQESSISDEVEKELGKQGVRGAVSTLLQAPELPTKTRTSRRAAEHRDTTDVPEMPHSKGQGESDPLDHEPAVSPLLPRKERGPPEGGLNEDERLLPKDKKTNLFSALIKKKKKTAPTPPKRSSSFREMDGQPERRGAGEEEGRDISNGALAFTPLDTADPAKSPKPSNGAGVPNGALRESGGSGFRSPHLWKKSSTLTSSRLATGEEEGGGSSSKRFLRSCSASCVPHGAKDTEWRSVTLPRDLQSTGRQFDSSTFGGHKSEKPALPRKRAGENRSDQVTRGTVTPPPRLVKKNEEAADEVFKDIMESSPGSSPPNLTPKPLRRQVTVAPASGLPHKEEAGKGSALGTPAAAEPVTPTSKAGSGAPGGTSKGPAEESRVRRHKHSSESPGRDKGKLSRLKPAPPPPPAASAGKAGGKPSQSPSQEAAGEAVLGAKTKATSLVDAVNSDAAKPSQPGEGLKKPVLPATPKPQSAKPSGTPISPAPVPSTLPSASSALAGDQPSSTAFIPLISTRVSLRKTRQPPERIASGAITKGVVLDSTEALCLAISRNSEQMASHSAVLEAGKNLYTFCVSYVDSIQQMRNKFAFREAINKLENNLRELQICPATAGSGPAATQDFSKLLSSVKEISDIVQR
Ras and Rab interactor 1/Tyrosine-protein kinase ABL1, sequence (Q13671 whole entry): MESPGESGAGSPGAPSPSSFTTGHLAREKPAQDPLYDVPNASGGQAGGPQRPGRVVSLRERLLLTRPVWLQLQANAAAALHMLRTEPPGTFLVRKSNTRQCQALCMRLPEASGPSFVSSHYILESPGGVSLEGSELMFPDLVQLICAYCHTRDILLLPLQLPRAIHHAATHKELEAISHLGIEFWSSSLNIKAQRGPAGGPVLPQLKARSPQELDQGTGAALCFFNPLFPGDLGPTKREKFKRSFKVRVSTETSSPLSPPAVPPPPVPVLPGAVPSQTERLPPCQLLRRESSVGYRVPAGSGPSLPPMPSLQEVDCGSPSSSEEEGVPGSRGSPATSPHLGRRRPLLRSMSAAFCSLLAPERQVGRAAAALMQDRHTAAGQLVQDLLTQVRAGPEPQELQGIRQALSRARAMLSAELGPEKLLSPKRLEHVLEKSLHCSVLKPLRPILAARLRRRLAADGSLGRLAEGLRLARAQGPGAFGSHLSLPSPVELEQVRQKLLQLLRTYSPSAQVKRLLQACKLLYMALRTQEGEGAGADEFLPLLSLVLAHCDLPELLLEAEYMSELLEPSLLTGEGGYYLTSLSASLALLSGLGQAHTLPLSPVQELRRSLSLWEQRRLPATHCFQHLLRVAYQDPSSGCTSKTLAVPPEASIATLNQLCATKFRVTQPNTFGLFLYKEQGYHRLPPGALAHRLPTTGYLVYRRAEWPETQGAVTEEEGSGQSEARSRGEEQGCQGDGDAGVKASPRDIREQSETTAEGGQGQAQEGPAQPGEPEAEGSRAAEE

As for `Cc1c(OC(C)C(=O)NCc2ccccn2)ccc2c3c(c(=O)oc12)CCC3` (configuration not stated), the AC50 in assay [1] was 6.05 µM (active).

For the molecule `N[C@@H](CCc1ccccc1)C(=O)O` [HOMOPHENYLALANINE], the EC50 in assay [2] is > 100 µM (inactive).

Take `CCOC(=O)C1CCCN(C2=NC(=O)/C(=C/c3ccc(O)c(OC)c3)S2)C1` (configuration not stated): the IC50 in assay [3] was 2.97 µM (active); in assay [4], 2.49 µM (active); in assay [5], > 100 µM (inactive); in [6], 19.6 µM (active); in [7] it was 26.3 µM (active); at Prothrombin, 40.6 µM (active).

On to `CCc1nn(CC(=O)N2CCN(Cc3ccc4c(c3)OCO4)CC2)c(=O)c2cc3occc3n12`, for which the half-maximal activity concentration (AC50) in assay [1] is 1.01 µM (active).

With `CN1c2ccccc2C(C)(C)C12CC(c1ccc(F)cc1)=NO2` (configuration not stated), in [2], the EC50 was > 100 µM (inactive).

`COc1ccc(C(=O)NC(=S)NNC(=O)c2ccc3ccccc3n2)cc1`: the EC50 was 3.06 µM (active) in assay [8] and 28.4 µM (active) in assay [10]. In addition, the AC50 is 26.8 µM (active) in assay [9]; 41.5 µM (active) in assay [11]; 4.32 µM (active) in assay [12]; 13.6 µM (active) in the assay with HEK293; 1.37 µM (active) in [13]. In the assay with Vero, the CC50 is 10.1 µM (active).

As for `CCOC(=O)CCCCC(=O)c1[nH]c(O)nc1C[n+]1ccc(C)cc1`, the IC50 in assay [14] was 5.77 µM (active).

In the case of `CCn1c2ccccc2c2cc(/C=N/n3c(S)nnc3-c3cc(C)[nH]n3)ccc21`, the IC50 was 33.7 µM (active) in assay [15] and 8.02 µM (active) in [16]. The AC50 in assay [9] was 0.288 µM (active); in the assay with HEK293, 8.12 µM (active).

`COc1ccc(-c2ccc3c(c2)S(=O)(=O)c2cccc(C(=O)N4CCN(c5c(Cl)cncc5Cl)CC4)c2C3=O)cc1OC`: the IC50 was > 100 µM (inactive) in [5], > 79 µM (inactive) with H9c2, 21.7 µM (active) in assay [7] and 29.3 µM (active) on Prothrombin.
